The values that follow are results of earlier work, collected in patent US20060150828A1, “Dried infant cereal compositions” (Beech-Nut Nutrition Corporation, priority 2005, published 2006).

The conditions of this series: storage at 37° C., precooked whole wheat flour containing the iron salt.

With ferrous gluconate, the “pentane formation (fat oxidation)” value is recorded as “rapidly generated pentane”.
With ferrous sulfate, the “pentane formation (fat oxidation)” value is “rapidly generated pentane”.
